Experimental data taken from patent publication US20100267712A1, “ISOINDOLINE COMPOUNDS FOR THE TREATMENT OF SPINAL MUSCULAR ATROPHY AND OTHER USES” (The United States of America, as represented by the …, priority 2007, published 2010).

Tested on: SMN2-linked luciferase-reporter gene construct
Experiment: SMN Splice Reporter Assay (SMN2-linked luciferase reporter)
Type: cell-based
Details: for EC50: cervical carcinoma cell lines, SMN2 splice luciferase reporter; for Fold Increase: fold-increase of luciferase over baseline reading of transformed cells without any test compound
Source text: As previously discussed, SMN1 is the gene deleted in SMA patients; the SMN2 gene remains intact in both SMA and normal patients. Therefore, SMN2 provides a potential means of increasing SMN production in SMA patients and is, thus, a target for developing SMA treatments. SMN2 is identical to SMN1 with the exception of a single base pair change that results in reduced expression of the gene. The reduction is based on the creation of an alternatively spliced RNA that produces an unstable protein carrying a deletion of exon 7. Both full length SMN and exon 7 deleted SMN are produced by the SMN2 gene via alternative RNA splicing, but the major product is the unstable deleted form.
Cervical carcinoma cell lines were transformed with a SMN2-linked luciferase-reporter gene construct. The reporter is designed to detect shifts in the alternative splicing of SMN2 sequences. In particular, the reporter is constructed as a fusion of the alternatively spliced sequences of the SMN2 gene and the luciferase gene. Luciferase sequences are in the correct translational reading frame only when the SMN2 sequences are spliced according to the normal SMN1 mechanism (e.g., splicing to include exon 7), which allows for translation of the stable SMN protein. Compounds were tested in the assay by administering the compound to the cell line and detecting an increase in the luciferase activity. The assay is described in greater detail in Zhang et al., Gene Ther., 8: 1532-8 (2001). Compounds were administered as described in Lunn et al, Chem. & Biol, 11: 1489-1493 (2004).
The results are reported as a fold-increase over a baseline reading of transformed cells without any test compound. The EC50 value also is reported in Table 1 for some exemplary compounds of the invention.

SMILES	EC50	Fold Increase
CN(C)c1ccc2c(c1)C(=O)N(c1ccc3ccsc3c1)C2 [Example 122038]	38 nM	1.592
COc1ccc2c(c1)C(=O)N(c1ccc3nc(N(C)C)ncc3c1)C2 [Example 122039]	7120 nM	1.459
COc1ccc(-c2ccc3c(c2)C(=O)N(c2ccc4c(ccn4C)c2)C3)cc1 [Example 122040]	–	1.148
C/C=C(/C)c1ccc2c(c1)C(=O)N(c1ccc3c(ccn3C)c1)C2 [Example 122041]	76 nM	1.606
Cn1ccc2cc(N3Cc4ccc(-c5cccnc5)cc4C3=O)ccc21 [Example 122042]	728 nM	1.422
Cn1ccc2cc(N3Cc4ccc(OCC(F)(F)F)cc4C3=O)ccc21 [Example 122043]	540 nM	1.341
COc1ccc2c(c1)C(=O)N(c1ccc3c(c1)c(Br)cn3C)C2 [Example 122044]	160 nM	1.383
Cn1ccc2cc(N3Cc4ccc(OC(F)(F)C(F)Cl)cc4C3=O)ccc21 (stereo not shown) [Example 122180]	92 nM	1.64
Cn1ccc2cc(N3Cc4ccc(-c5cncnc5)cc4C3=O)ccc21 [Example 122181]	–	1.169
COc1ccc2c(c1)CN(c1ccc3c(ccn3C)c1)C2 [Example 122183]	593 nM	1.518
COc1ccc2c(c1)C(=O)N(c1ccc3c(c1)c(C)cn3C)C2 [Example 122184]	409 nM	1.639
COc1ccc2c(c1)C(=O)N(c1ccc3c(c1)CCN3C)C2 [Example 122314]	–	1.026
COc1ccc(-c2ccc3c(c2)C(=O)N(c2ccc4ccn(C)c4c2)C3)cc1 [Example 122315]	–	1.091
Cn1ccc2cc(N3Cc4cc(F)ccc4C3=O)ccc21 [Example 122316]	65 nM	1.401
Cn1ccc2ccc(N3Cc4ccc(-c5cccnc5)cc4C3=O)cc21 [Example 122318]	459 nM	1.94
CN1CCCc2cc(N3Cc4ccc(OC(F)F)cc4C3=O)ccc21 [Example 122319]	203 nM	1.97
O=C1c2cc(O)ccc2CN1c1ccc2sccc2c1 [Example 122430]	86 nM	1.769
Cn1ccc2cc(N3Cc4ccc(OC(F)(F)Br)cc4C3=O)ccc21 [Example 122431]	220 nM	1.552
COc1ccc2c(c1)C(=O)N(c1ccc3nc(OC)ncc3c1)C2 [Example 122432]	1140 nM	1.32
Cn1ccc2ccc(N3Cc4ccc(-c5cncnc5)cc4C3=O)cc21 [Example 122433]	1070 nM	1.333
COc1ccc2c(c1)C(=O)N(c1ccc3scc(Br)c3c1)C2 [Example 122434]	378 nM	1.718
COc1ccc2c(c1)C(=O)N(c1ccc3c(c1)N(C)CCN3C)C2 [Example 122436]	5950 nM	1.354

SMILES	EC50	Fold Increase
CCCOc1ccc2c(c1)C(=O)N(c1ccc3sccc3c1)C2 [Example 122551]	–	1.235
CCCCOc1ccc2c(c1)C(=O)N(c1ccc3sccc3c1)C2 [Example 122552]	–	1.202
CC(C)Oc1ccc2c(c1)C(=O)N(c1ccc3sccc3c1)C2 [Example 122553]	–	1.082
CCOc1ccc2c(c1)C(=O)N(c1ccc3sccc3c1)C2 [Example 122554]	27 nM	1.475
Cc1ccc2c(c1)C(=O)N(c1ccc3ccsc3c1)C2 [Example 122555]	87 nM	1.509
O=C1c2cc(O)ccc2CN1c1ccc2ccsc2c1 [Example 122556]	139 nM	1.671
O=C1c2cc(Br)ccc2CN1c1ccc2ccsc2c1 [Example 122557]	–	1.383
O=C1c2cc(Br)ccc2CN1c1ccc2sccc2c1 [Example 122558]	94 nM	1.469
CCc1ccc2c(c1)C(=O)N(c1ccc3ccsc3c1)C2 [Example 122683]	125 nM	1.582
CCc1ccc2c(c1)C(=O)N(c1ccc3sccc3c1)C2 [Example 122684]	57 nM	1.665
CCCc1ccc2c(c1)C(=O)N(c1ccc3sccc3c1)C2 [Example 122819]	35 nM	1.547
COc1ccc2c(c1)C(=O)N(c1ccc3nccc(N(C)C)c3c1)C2 [Example 122820]	–	1.066
COc1ccc2c(c1)C(=O)N(c1ccc3cccnc3c1)C2 [Example 122821]	37 nM	1.401
Cc1cc2cc(N3Cc4ccc(O)cc4C3=O)ccc2n1C [Example 123010]	302 nM	1.336
COc1ccc2c(c1)C(=O)N(c1ccc3scc(C)c3c1)C2 [Example 123012]	272 nM	1.773
COc1ccc2c(c1)C(=O)N(c1ccc3nccc(Cl)c3c1)C2 [Example 123013]	902 nM	1.413
CCCc1ccc2c(c1)C(=O)N(c1ccc3c(c1)cc(C)n3C)C2 [Example 123014]	323 nM	1.407
Cc1ccc2c(c1)C(=O)N(c1ccc3c(c1)cc(C)n3C)C2 [Example 123015]	53 nM	1.43
CCc1ccc2c(c1)C(=O)N(c1ccc3c(c1)cc(C)n3C)C2 [Example 123016]	197 nM	1.481
Cc1cc2cc(N3Cc4ccc(OC(F)F)cc4C3=O)ccc2n1C [Example 123204]	374 nM	1.361
COc1ccc2c(c1)C(=O)N(c1ccc3nccc(OC)c3c1)C2 [Example 123205]	–	1.227
COc1ccc2c(c1)C(=O)N(c1ccc3nc(Cl)ccc3c1)C2 [Example 123206]	119 nM	1.531

SMILES	EC50	Fold Increase
CCOc1ccc2c(c1)C(=O)N(c1ccc3c(c1)cc(C)n3C)C2 [Example 123328]	444 nM	1.316
CCC(C)c1ccc2c(c1)C(=O)N(c1ccc3c(c1)cc(C)n3C)C2 (stereo not shown) [Example 123329]	569 nM	1.327
CCCCc1ccc2c(c1)C(=O)N(c1ccc3c(c1)cc(C)n3C)C2 [Example 123331]	660 nM	1.31
COc1ccc2c(c1)C(=O)N(c1ccc3nc(N(C)C)ccc3c1)C2 [Example 123332]	207 nM	1.272
COc1ccc2c(c1)C(=O)N(c1ccc3nc(OC)ccc3c1)C2 [Example 123333]	20 nM	1.376
Cc1cc2cc(N3Cc4ccc(CC(C)C)cc4C3=O)ccc2n1C [Example 123439]	359 nM	1.357
Cn1ccc2cc(N3Cc4ccc(N5CCOCC5)cc4C3=O)ccc21 [Example 123587]	–	1.256
CN1CCN(c2ccc3c(c2)C(=O)N(c2ccc4c(ccn4C)c2)C3)CC1 [Example 123588]	–	1.183
COc1ccc2c(c1)C(=O)N(c1ccc3nccc(C)c3c1)C2 [Example 123589]	78 nM	1.541
COc1ccc2c(c1)C(=O)N(c1ccc3sc(C)c(C)c3c1)C2 [Example 123590]	128 nM	1.405
COc1ccc2c(c1)C(=O)N(c1ccc3ccc(Cl)nc3c1)C2 [Example 123710]	47 nM	1.327
COc1ccc2c(c1)C(=O)N(c1ccc3c(Cl)ccnc3c1)C2 [Example 123711]	1580 nM	1.262
COc1ccc2c(c1)C(=O)N(c1ccc3c(OC)ccnc3c1)C2 [Example 123712]	147 nM	1.38
COc1ccc2c(c1)C(=O)N(c1ccc3c(N(C)C)ccnc3c1)C2 [Example 123713]	–	1.072
CCCOc1ccc2c(c1)C(=O)N(c1ccc3c(c1)cc(C)n3C)C2 [Example 123715]	145 nM	1.216
COc1ccc2c(c1)C(=O)N(c1ccc3c(c1)cc(C(=O)N1CCCC1)n3C)C2 [Example 123935]	–	1.124
COc1ccc2c(c1)C(=O)N(c1ccc3ccc(OC)nc3c1)C2 [Example 123936]	784 nM	1.429
COc1ccc2c(c1)C(=O)N(c1ccc3ccc(N(C)C)nc3c1)C2 [Example 123937]	–	1.202
Cc1cc2cc(N3Cc4ccc(OC5CCCC5)cc4C3=O)ccc2n1C [Example 123938]	–	1.2
CCOC1CS(=O)(=O)c2cc(N3Cc4ccc(OC)cc4C3=O)ccc21 (stereo not shown) [Example 124031]	–	1.106
O=C1c2cc(Br)ccc2CN1c1ccc2ncccc2c1 [Example 124033]	225 nM	1.795
CC(=O)Nc1ccc2c(c1)C(=O)N(c1ccc3c(c1)cc(C)n3C)C2 [Example 124034]	440 nM	1.494
